Key:
[1] = Part A: PK of single-dose fruquintinib alone and with itraconazole (CYP3A inhibition); type: in vivo, human; settings: for AUC(0-inf) / AUC(0-t) / Tmax / Cmax / half-life / t1/2: fruquintinib in plasma; for AUC(0-inf) / AUC(0-t) / Tmax / Cmax / half-life / t1/2 / CL/F (apparent oral clearance): Part A, n = 14; for AUC(0-inf) / AUC(0-t) / Cmax / half-life / t1/2 / CL/F (apparent oral clearance): arithmetic mean (SD); for Tmax: median (minimum‐maximum); for half-life: plasma; for CL/F (apparent oral clearance): fruquintinib
Description: (§1) This was a single‐center, open‐label, 2‐part (Part A and Part B), 2‐period, fixed‐sequence study conducted in healthy male and female subjects. Parts A and B evaluated the effect of the CYP3A inhibitor itraconazole and the CYP3A inducer rifampin on the PK profile of fruquintinib, respectively. Each part consisted of a screening phase, a treatment phase (Period 1 and Period 2), and an end‐of‐study (EOS) phase. Screening occurred within 21 days before the first study drug administration. There was at least a 14‐day washout of fruquintinib between treatment periods. PK samples were collected before dosing and over 168 hours following the fruquintinib dose in Part A (with itraconazole) and Part B (with rifampin). Part A and Part B were enrolled independently.
In Part A, subjects were administered fruquintinib alone in Treatment Period 1 and in combination with itraconazole in Treatment Period 2. Study Day 1 was considered the start of Treatment Period 1, and Study Day 15 was considered the start of Treatment Period 2. On Study Day 1, subjects received a single dose of fruquintinib 5 mg by mouth under fasted conditions (subjects fasted for at least 10 hours before fruquintinib dosing and 4 hours after), and on Study Day 19 subjects received a second single dose of fruquintinib 5 mg by mouth under fasted conditions, alongside itraconazole. On Study Day 15, subjects began a regimen of itraconazole 200 mg by mouth twice a day, followed by once daily dosing on Study Days 16‐25. A dose of 200 mg was selected, with a loading dose as part of a 5‐day lead‐in (twice daily for 1 day, once daily for 4 days) to achieve appropriate inhibition of CYP3A before dosing with fruquintinib.[10] Once‐daily dosing of itraconazole for an additional 5 days throughout the fruquintinib PK sampling period was continued to maintain CYP3A inhibition.[11]
As itraconazole oral bioavailability is maximal when the capsules are taken immediately after a full meal,[12] it was administered under fed conditions except when coadministered with fruquintinib on Study Day 19. Itraconazole doses were administered 30 minutes after the start of breakfast on Study Days 15‐18 and Study Days 20‐25. On Study Day 19, subjects received both treatments under fasted conditions, and itraconazole was administered 1 hour before administration of a single dose of fruquintinib 5 mg by mouth. Subjects were discharged after completion of EOS procedures on Study Day 26 or at early withdrawal.
(§2) Blood samples for determination of fruquintinib and metabolite M11 plasma concentrations were collected before dosing and at 0.5, 1, 1.5, 2, 3, 4, 6, 8, 12, 24, 36, 48, 72, 96, 120, 144, and 168 hours after fruquintinib dosing. Plasma samples were analyzed by LabCorp Bioanalytical (Indianapolis, IN) using a validated liquid chromatography with tandem mass spectrometry assay method with an analytical range of 1.00 ng/mL (lower limit of quantitation) to 750 ng/mL (upper limit of quantitation) for both fruquintinib and M11.[6] Interrun variability was 6.3% or less and 13.8% or less for fruquintinib and M11, respectively. Quality control samples at 4 concentrations (3, 30, 300, and 600 ng/mL) were assayed along with study samples, and the bias quality control sample concentrations deviated by ±2.0% and ±2.7% from the nominal concentrations for fruquintinib and M11, respectively.
PK parameters were determined by noncompartmental analysis and included maximum plasma concentration (Cmax); time to reach Cmax (tmax); area under the plasma concentration‐time curve (AUC) from time 0 to the time of the last measurable concentration (AUC0‐t); AUC from time 0 to infinity (AUC0‐inf); half‐life (t1/2); and the metabolite‐to‐parent ratios for Cmax, AUC0‐t, and AUC0‐inf. Apparent oral clearance and volume of distribution were also estimated for fruquintinib. […]

[2] = Part B: PK of single-dose fruquintinib alone and with rifampin (CYP3A induction); type: in vivo, human; settings: for AUC(0-inf) / AUC(0-t) / Cmax / half-life / Tmax / t1/2: fruquintinib in plasma; for AUC(0-inf) / AUC(0-t) / Cmax / half-life / Tmax / t1/2 / CL/F (apparent oral clearance): Part B; for AUC(0-inf) / AUC(0-t) / Cmax / half-life / t1/2 / CL/F (apparent oral clearance): arithmetic mean (SD); for half-life / Tmax: plasma; for Tmax: median (minimum‐maximum), read-out: tmax; for CL/F (apparent oral clearance): fruquintinib
Description: as §1
In Part B, subjects were administered fruquintinib alone in Treatment Period 1 and in combination with rifampin in Treatment Period 2. Study Day 1 was considered as the start of Treatment Period 1, and Study Day 8 was considered as the start of Treatment Period 2. On Study Day 1, a single dose of fruquintinib 5 mg by mouth was administered under fasted conditions, and on Study Day 15, a single dose of fruquintinib 5 mg was administered by mouth under fasted conditions alongside rifampin. Starting on Study Day 8, rifampin 600 mg was dosed by mouth once daily for 14 consecutive days, 7 days before fruquintinib dosing and 6 days after fruquintinib dosing, to ensure that induction was maintained throughout the PK sampling period. Subjects therefore received rifampin from Study Day 8 to Study Day 21. Absorption of rifampin is reduced by approximately 30% when the drug is ingested with food.[13] Therefore, rifampin was administered at least 1 hour before breakfast when given alone and under fasted conditions when administered with fruquintinib. Breakfast was given at least 1 hour after the rifampin doses on Study Days 8‐14 and Study Days 16‐21. On Study Day 15, subjects received both treatments under fasted conditions, and rifampin was administered 1hour before administration of a single dose of fruquintinib 5 mg by mouth. Subjects were discharged after completion of EOS procedures on Study Day 22 or at early withdrawal.
as §2
PK parameters were determined by noncompartmental analysis and included maximum plasma concentration (Cmax); time to reach Cmax (tmax); area under the plasma concentration‐time curve (AUC) from time 0 to the time of the last measurable concentration (AUC0‐t); AUC from time 0 to infinity (AUC0‐inf); half‐life (t1/2); and the metabolite‐to‐parent ratios for Cmax, AUC0‐t, and AUC0‐inf. Apparent oral clearance and volume of distribution were also estimated for fruquintinib.
For Part A, the effect of itraconazole based on the PK parameters of fruquintinib was evaluated using a linear mixed‐effect model with treatment (ie, fruquintinib with itraconazole [test] and fruquintinib alone [reference]) as fixed effects and subject as a random effect. A similar inferential analysis was performed for Part B, but fruquintinib with rifampin was the test group. […]

[3] = test system: P‐gp; settings: no reference given; cited from earlier work
[4] = both sexes, human, oral, fruquintinib 5 mg + itraconazole 200 mg
[5] = both sexes, human, oral, fruquintinib alone 5 mg
[6] = fruquintinib 5 mg + itraconazole 200 mg
[7] = both sexes, human, oral, fruquintinib 5 mg + rifampin 600 mg, n = 13
[8] = both sexes, human, oral, fruquintinib alone 5 mg, n = 13
[9] = fruquintinib 5 mg + rifampin 600 mg, n = 13
[10] = fruquintinib alone 5 mg, n = 13

Compound `CNC(=O)c1c(C)oc2cc(Oc3ncnc4cc(OC)c(OC)cc34)ccc12` [Fruquintinib] has an AUC(0-inf) [1, 4] of 6460 ng·h/mL, an AUC(0-t) [1, 4] of 6040 ng·h/mL and a Tmax [1, 4] of 4 h. The AUC(0-inf) [1, 5] was 5960 ng·h/mL, the AUC(0-t) [1, 5] was 5730 ng·h/mL and the Tmax [1, 5] was 2 h. For the same compound, the Cmax ([1]; both sexes, human, oral, fruquintinib alone, single 5 mg by mouth, fasted, read-out: Cmax) was 133 ng/mL, the half-life ([1]; both sexes, human, oral, 5 mg, fruquintinib alone 5 mg) was ~34 h and the half-life [1, 4] was ~41 h. For the same compound, the “increase of fruquintinib AUCs” value ([1]; coadministration with itraconazole versus fruquintinib alone) was “approximately 10%”, the “delay of median tmax of fruquintinib” value ([1]; following coadministration of itraconazole) was 2 h and the Cmax [1, 6] was 122 (22.8) ng/mL. The t1/2 [1, 6] was 41.4 (5.96) hour, the t1/2 ([1]; fruquintinib alone 5 mg) was 33.9 (6.96) hour and the “CL/F (apparent oral clearance)” value [1, 6] was 13.3 (2.59) mL/min. The “CL/F (apparent oral clearance)” value ([1]; fruquintinib alone 5 mg) was 14.9 (4.14) mL/min, the AUC(0-inf) [2, 7] was 2070 ng·h/mL and the AUC(0-t) [2, 7] was 2020 ng·h/mL. For the same compound, the Cmax ([2]; both sexes, human, oral, fruquintinib 5 mg + rifampin 600 mg, n = 13, read-out: Cmax) was 108 ng/mL, the AUC(0-inf) [2, 8] was 5890 ng·h/mL and the AUC(0-t) [2, 8] was 5640 ng·h/mL. It also gave a half-life ([2]; both sexes, human, oral, 5 mg, fruquintinib alone 5 mg, n = 13) of ~34 h, a Tmax ([2]; both sexes, human, oral, 5 mg, fruquintinib alone 5 mg, n = 14) of 3.33 h and a half-life [2, 7] of ~14 h. The Tmax [2, 7] was 3 h, the “reduction of fruquintinib AUCs (AUC0‐t and AUC0‐inf)” value ([2]; coadministration with rifampin versus fruquintinib alone) was 65% and the t1/2 [2, 9] was 14.0 (3.06) hour. For the same compound, the t1/2 [2, 10] was 33.9 (7.76) hour, the Cmax ([2]; fruquintinib alone, single 5 mg by mouth, fasted, n = 14) was 123 (25.5) ng/mL and the “CL/F (apparent oral clearance)” value [2, 9] was 41.9 (7.46) mL/min. The “CL/F (apparent oral clearance)” value [2, 10] was 14.5 (2.22) mL/min and the “P‐gp substrate” value [3] was “not a P‐gp substrate”.

Source: PMC12314110, “Evaluation of Potential Effects of CYP3A Inhibition and CYP3A Induction on the Pharmacokinetics of Fruquintinib in Healthy Subjects” (Clinical Pharmacology in Drug Development, 2025)
